Source: patent US20190106460A1, “BINDING INHIBITORS OF THE BETA. TRANSDUCIN REPEAT-CONTAINING PROTEIN” (priority 2011, published 2019)
Read-outs that look alike come from different tables or passages of the source. Non-standard residues stand in square brackets, D forms with d. Residues, ends and D or L forms follow the SMILES beside them. *: point of attachment. Benzenesulfonyl(4-OMe) = COc1ccc(S(=O)(=O)*)cc1; 2Naphthylsulfonyl = O=S(=O)(c1ccc2ccccc2c1)*; Phe(3-Cl) = N[C@@H](Cc1cccc(Cl)c1)C(=O)O; Phe(3-F) = N[C@@H](Cc1cccc(F)c1)C(=O)O; NMeE = CN[C@@H](CCC(=O)O)C(=O)O; Tos = Cc1ccc(S(=O)(=O)*)cc1; Propionyl = CCC(=O)*; Bz = O=C(c1ccccc1)*; Moc = COC(=O)*

What was measured:
[1] = target: T1, βTrCP (Homo sapiens, UniProt Q9Y297); assay: Biotin pull down assay with biotinylated IκB peptide; type: binding; conditions: for Biotin Pulldown Assay 10 μM: 10 μM compound; for Biotin Pulldown Assay 100 μM: 100 μM compound
T1 sequence (Q9Y297 1-605): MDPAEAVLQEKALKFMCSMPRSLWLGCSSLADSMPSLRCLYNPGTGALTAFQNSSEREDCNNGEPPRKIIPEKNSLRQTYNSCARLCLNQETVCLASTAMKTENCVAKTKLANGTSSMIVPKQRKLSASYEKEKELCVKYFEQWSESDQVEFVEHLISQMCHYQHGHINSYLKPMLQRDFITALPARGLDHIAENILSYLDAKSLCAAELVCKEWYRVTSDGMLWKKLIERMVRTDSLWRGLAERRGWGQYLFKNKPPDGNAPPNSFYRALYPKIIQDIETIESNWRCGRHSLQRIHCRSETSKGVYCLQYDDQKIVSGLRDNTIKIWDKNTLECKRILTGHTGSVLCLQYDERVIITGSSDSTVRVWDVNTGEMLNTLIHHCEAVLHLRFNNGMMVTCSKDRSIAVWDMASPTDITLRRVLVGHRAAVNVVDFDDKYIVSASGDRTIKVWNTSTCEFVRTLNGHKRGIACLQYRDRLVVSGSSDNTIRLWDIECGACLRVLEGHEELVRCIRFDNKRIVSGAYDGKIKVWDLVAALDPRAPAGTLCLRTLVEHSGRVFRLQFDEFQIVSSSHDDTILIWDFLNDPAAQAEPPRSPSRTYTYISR

[2] = target: β-TrCP1/Skp1 (Homo sapiens, UniProt Q9Y297); assay: βTrCP ubiquitination assay (Ub assay); type: biochemical; conditions: for Ub Assay 10 μM: 10 μM compound; for Ub Assay 100 μM: 100 μM compound
Sequence of β-TrCP1/Skp1 (P63208 2-163 partner limits assumed, one chain of several): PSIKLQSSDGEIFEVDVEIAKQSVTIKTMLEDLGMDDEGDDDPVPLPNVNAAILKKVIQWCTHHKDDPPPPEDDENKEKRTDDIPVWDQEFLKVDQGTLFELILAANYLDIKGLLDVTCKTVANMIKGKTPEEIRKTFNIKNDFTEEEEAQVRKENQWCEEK
Method: (§1) βTrCP Ubiquitination Assay and Selectivity Assays
0.5 μM Peptide substrate (biotin)
(§2) Master mixes were prepared in a 50 mM Herpes buffer at pH 7.5, in 75 mM NaCl and 1 mM DTT without Mg or ATP and peptides were added to a final concentration of 100 μM. Reactions were incubated at room temperature for 30 minutes and then Mg/ATP was added to the mix. Reactions were further incubated for an additional 60 minutes and then stopped by adding SDS gel loading buffer and boiled for 5 minutes. Reactions were run on SDS-PAGE (10%) and transferred to nitrocellulose membranes and probed with HRP-Streptavidin.
Candidate compounds were tested in duplicate at both 10 and 100 μM against the E3 ligase cascades βTrCP(IκBα) and βTrCP(β-catenin). The E3 assays were carried out according to the component concentrations detailed in Table 9. In each case the E2 was HA,6His-UbcH3-(hu,FL), the E1 was 6His-UBE1-(hu,FL) and the ubiquitin (Sigma U6253) was biotinylated at a 5:1 ratio. Substrate phosphorylation was performed in the absence of compound; consequently any observed signal modulation should not reflect inhibition of the up-stream kinase reaction. All other steps (E1, E2 and substrate ubiquitination) were carried out in the presence of compound. The stopped reaction mix (10 μl) was added to an ECL plate loaded with anti c-Myc ( 1/500 Dilution, Millipore 05-724) and blocked with 5% BSA. Binding was allowed to proceed for 1 hour at RT before a wash step (3 40 μl PBST washes). Detection was achieved by binding SA-Ru TAG at 1 μg/ml (1 hour @ RT, 3 40 μl PBST washes) before reading on an MSD Sector Imager 6000.
Assays were performed as described above

[3] = target: FBW7/Skp1 (Homo sapiens, UniProt Q969H0); assay: Selectivity assay vs other E3s: Fbw7; type: biochemical; conditions: for inhibition at 100 µM: read-out: % Inhibition Fbw7 @ (100 μM); for inhibition at 10 µM: read-out: % Inhibition Fbw7 @ 10 μM
Sequence of FBW7/Skp1 (Q969H0 whole entry, species assumed): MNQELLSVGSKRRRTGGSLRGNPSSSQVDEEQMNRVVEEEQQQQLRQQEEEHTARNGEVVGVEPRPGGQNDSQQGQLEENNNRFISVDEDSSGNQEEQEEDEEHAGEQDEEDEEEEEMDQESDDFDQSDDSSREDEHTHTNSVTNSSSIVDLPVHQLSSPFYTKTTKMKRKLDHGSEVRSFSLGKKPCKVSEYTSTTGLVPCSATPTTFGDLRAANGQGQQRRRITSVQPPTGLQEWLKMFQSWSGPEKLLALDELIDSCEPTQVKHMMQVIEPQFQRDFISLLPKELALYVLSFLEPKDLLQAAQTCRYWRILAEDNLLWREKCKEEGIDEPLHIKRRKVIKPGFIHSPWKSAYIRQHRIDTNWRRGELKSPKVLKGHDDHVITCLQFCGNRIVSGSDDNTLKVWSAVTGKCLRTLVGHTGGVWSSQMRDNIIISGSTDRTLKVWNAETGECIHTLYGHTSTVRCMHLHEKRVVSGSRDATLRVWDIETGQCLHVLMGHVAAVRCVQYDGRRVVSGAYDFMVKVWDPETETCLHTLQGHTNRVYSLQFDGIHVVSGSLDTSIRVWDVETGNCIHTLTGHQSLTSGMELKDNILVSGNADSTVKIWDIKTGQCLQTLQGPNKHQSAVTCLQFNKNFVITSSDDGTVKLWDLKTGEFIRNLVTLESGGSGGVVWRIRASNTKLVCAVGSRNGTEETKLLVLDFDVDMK
Sequence of FBW7/Skp1 (P63208 whole entry partner, species assumed): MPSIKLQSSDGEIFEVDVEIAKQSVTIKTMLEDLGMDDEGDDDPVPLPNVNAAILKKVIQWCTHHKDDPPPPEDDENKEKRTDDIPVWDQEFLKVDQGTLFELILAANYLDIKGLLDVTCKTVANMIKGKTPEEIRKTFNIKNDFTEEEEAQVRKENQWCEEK
Sequence of FBW7/Skp1 (Q13616 whole entry partner, species assumed): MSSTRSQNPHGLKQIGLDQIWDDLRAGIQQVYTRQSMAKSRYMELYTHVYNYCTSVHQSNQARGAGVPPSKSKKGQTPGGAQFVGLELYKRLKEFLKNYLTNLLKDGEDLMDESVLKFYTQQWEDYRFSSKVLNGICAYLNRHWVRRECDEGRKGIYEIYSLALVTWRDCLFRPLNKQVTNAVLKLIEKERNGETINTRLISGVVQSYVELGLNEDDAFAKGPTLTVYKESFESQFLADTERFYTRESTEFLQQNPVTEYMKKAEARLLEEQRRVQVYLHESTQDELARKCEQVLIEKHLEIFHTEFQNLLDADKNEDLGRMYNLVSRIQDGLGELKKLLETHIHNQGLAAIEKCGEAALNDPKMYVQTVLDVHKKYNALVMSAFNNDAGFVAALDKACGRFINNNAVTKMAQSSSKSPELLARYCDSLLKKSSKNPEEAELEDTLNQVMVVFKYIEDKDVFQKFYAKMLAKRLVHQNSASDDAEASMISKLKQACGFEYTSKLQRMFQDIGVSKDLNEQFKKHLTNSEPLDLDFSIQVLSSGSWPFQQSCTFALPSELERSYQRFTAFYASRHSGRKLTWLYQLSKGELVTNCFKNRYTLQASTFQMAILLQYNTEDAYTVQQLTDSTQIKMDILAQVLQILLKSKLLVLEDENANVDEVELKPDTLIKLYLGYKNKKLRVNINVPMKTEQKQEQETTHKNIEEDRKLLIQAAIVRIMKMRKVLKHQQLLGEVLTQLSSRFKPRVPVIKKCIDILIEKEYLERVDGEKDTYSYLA
Sequence of FBW7/Skp1 (P62877 whole entry partner, species assumed): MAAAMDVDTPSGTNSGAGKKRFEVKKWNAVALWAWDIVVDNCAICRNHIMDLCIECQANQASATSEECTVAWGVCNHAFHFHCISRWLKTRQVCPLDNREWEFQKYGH
Method: as §1, §2
FBW7 selectivity assays were performed in the same manner except using FBW7/Skp1 as E3 component and cyclin E as the substrate. Blots were probed using anti-cyclin E antibody.
(§3) Candidate compounds were tested for inhibition of Fbw7 and Skp2 as described above.

[4] = target: Skp2 (Homo sapiens, UniProt Q13309); assay: Selectivity assay vs other E3s: Skp2; type: biochemical; conditions: for inhibition at 100 µM: read-out: % Inhibition Skp2 @ (100 μM); for inhibition at 10 µM: read-out: % Inhibition Skp2 @ 10 μM
Sequence of Skp2 (Q13309 whole entry, species assumed): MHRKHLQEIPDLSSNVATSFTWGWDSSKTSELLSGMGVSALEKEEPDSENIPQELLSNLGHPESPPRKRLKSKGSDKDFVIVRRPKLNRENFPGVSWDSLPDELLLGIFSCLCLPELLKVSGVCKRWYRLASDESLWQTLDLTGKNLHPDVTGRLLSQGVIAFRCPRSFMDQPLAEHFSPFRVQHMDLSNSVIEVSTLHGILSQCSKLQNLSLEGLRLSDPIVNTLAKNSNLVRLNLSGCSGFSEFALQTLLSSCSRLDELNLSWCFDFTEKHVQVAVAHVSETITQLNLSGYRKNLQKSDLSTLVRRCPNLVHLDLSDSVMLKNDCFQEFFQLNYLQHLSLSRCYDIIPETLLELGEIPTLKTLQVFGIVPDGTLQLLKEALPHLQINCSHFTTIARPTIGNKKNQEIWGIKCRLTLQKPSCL
Sequence of Skp2 (P63208 whole entry partner, species assumed): as the sequence (P63208 whole entry partner, species assumed) above
Sequence of Skp2 (Q13616 whole entry partner, species assumed): as the sequence (Q13616 whole entry partner, species assumed) above
Sequence of Skp2 (P62877 whole entry partner, species assumed): as the sequence (P62877 whole entry partner, species assumed) above
Method: as §1, §2, §3

[5] = target: βTrCP (Homo sapiens, UniProt Q9Y297); assay: Fluorescence polarisation (FP) binding assay with fluorescein-tagged IκB peptide
Target sequence in this assay (P63208 whole entry partner, one chain of several): as the sequence (P63208 whole entry partner, species assumed) above

[6] = Table 11, with spread, read-out: FP IC50/μM
[7] = Tables 1, 3, 7, 8, 10 nM fluorescein-tagged IκB peptide, read-out: FP Assay IC50/μM

| SMILES | Biotin Pulldown Assay 10 μM [1] | Biotin Pulldown Assay 100 μM [1] | Ub Assay 10 μM [2] | Ub Assay 100 μM [2] | inhibition at 100 µM ([3]; 100 μM, value in brackets) [%] | inhibition at 10 µM [3] [%] | inhibition at 100 µM ([4]; 100 μM, value in brackets) [%] | inhibition at 10 µM [4] [%] | IC50 [5, 6] [µM] | IC50 [5, 7] [µM] | inhibition at 100 µM [3] [%] | inhibition at 100 µM [4] [%] | IC50 ([5]; FP Assay IC50/μM, Tables 1, 3, 7, 8, 10 nM fluorescein-tagged IκB peptide) [µM] | IC50 ([5]; FP IC50/μM, Table 11, with spread) [µM] |
| --- | --- | --- | --- | --- | --- | --- | --- | --- | --- | --- | --- | --- | --- | --- |
| Cc1ccc(S(=O)(=O)N[C@H](CC(=O)O)C(=O)N[C@@H](CC(=O)O)C(=O)NCC(=O)N[C@@H](Cc2cccc(F)c2)C(=O)N[C@@H](Cc2c[nH]c3ccccc23)C(=O)N[C@@H](CCC(=O)O)C(N)=O)cc1 [UBP025, Ts-dDGF(3F)WE-NH2] (Tos-[dD]DG[Phe(3-F)]WE-NH2) | s. reduces/ | inhibits | inhibits/ | inhibits | 8 | 1 | 22 | 0 | 0.025 ± 0.004 | 0.025 |  |  |  |  |
| Cc1ccc(S(=O)(=O)N[C@H](CC(=O)O)C(=O)N[C@@H](CC(=O)O)C(=O)NCC(=O)N[C@@H](Cc2cccc(F)c2)C(=O)N[C@@H](Cc2c[nH]c3ccccc23)C(=O)N[C@@H](CC(=O)O)C(N)=O)cc1 [UBP028, Ts-dDGF(3F)WD-NH2] (Tos-[dD]DG[Phe(3-F)]WD-NH2) | reduces/ | inhibits | inhibits/ | inhibits | 10 | 4 | 14 | 0 | 0.081 ± 0.02 | 0.081 |  |  |  |  |
| CCC(=O)N[C@H](CC(=O)O)C(=O)N[C@@H](CCC(=O)O)C(=O)NCC(=O)N[C@@H](Cc1cccc(F)c1)C(=O)N[C@@H](Cc1c[nH]c2ccccc12)C(=O)N[C@@H](CCC(=O)O)C(N)=O [UBP019, Et(CO)-dEGF(3F)WE-NH2] (Propionyl-[dD]EG[Phe(3-F)]WE-NH2) | reduces/ | inhibits | reduces/ | inhibits | 10 | 0 | 10 | 1 | 0.145 ± 0.026 | 0.145 |  |  |  |  |
| NC(=O)[C@H](CCC(=O)O)NC(=O)[C@H](Cc1c[nH]c2ccccc12)NC(=O)[C@H](Cc1cccc(F)c1)NC(=O)CNC(=O)[C@H](CCC(=O)O)NC(=O)[C@@H](CC(=O)O)NC(=O)c1ccccc1 [UBP018, Bz-dEGF(3F)WE-NH2] (Bz-[dD]EG[Phe(3-F)]WE-NH2) | reduces/ | inhibits | reduces/ | inhibits |  | 0 |  | 0 |  |  | 5 | 0 | 0.173 | 0.173 ± 0.072 |
| Cc1ccc(S(=O)(=O)N[C@H](CC(=O)O)C(=O)N[C@@H](CCC(=O)O)C(=O)NCC(=O)N[C@@H](Cc2cccc(Cl)c2)C(=O)N[C@@H](Cc2c[nH]c3ccccc23)C(=O)N(C)[C@@H](CCC(=O)O)C(N)=O)cc1 [UBP033, Ts-dEGF(3Cl)WE(Me)-NH2] (Tos-[dD]EG[Phe(3-Cl)]W[NMeE]-NH2) |  | inhibits |  | inhibits | 11 | 7 | 10 | 0 |  | 0.017 |  |  |  |  |
| COc1ccc(S(=O)(=O)N[C@H](CC(=O)O)C(=O)N[C@@H](CCC(=O)O)C(=O)NCC(=O)N[C@@H](Cc2cccc(F)c2)C(=O)N[C@@H](Cc2c[nH]c3ccccc23)C(=O)N[C@@H](CCC(=O)O)C(N)=O)cc1 [4-(MeO)-PhSO2-dEGF(3F)WE-NH2] ({Benzenesulfonyl(4-OMe)}-[dD]EG[Phe(3-F)]WE-NH2) |  |  |  |  | 18 | 0 | 12 | 7 | 0.017 ± 0.002 |  |  |  |  |  |
| COC(=O)N[C@H](CC(=O)O)C(=O)N[C@@H](CCC(=O)O)C(=O)NCC(=O)N[C@@H](Cc1cccc(F)c1)C(=O)N[C@@H](Cc1c[nH]c2ccccc12)C(=O)N[C@@H](CCC(=O)O)C(N)=O [UBP020, MeO(CO)-dEGF(3F)WE-NH2] (Moc-[dD]EG[Phe(3-F)]WE-NH2) | reduces/ | inhibits | inhibits/ | inhibits | 8 | 6 | 16 | 0 | 0.076 ± 0.014 |  |  |  |  |  |
| NC(=O)[C@H](CCC(=O)O)NC(=O)[C@H](Cc1c[nH]c2ccccc12)NC(=O)[C@H](Cc1cccc(F)c1)NC(=O)CNC(=O)[C@H](CCC(=O)O)NC(=O)[C@@H](CC(=O)O)NS(=O)(=O)c1ccc2ccccc2c1 [UBP031, 2-NaphthylSO2-dEGF(3F)WE-NH2] (2Naphthylsulfonyl-[dD]EG[Phe(3-F)]WE-NH2) | reduces/ | inhibits | reduces/ | inhibits | 11 | 10 | 17 | 0 | 0.044 ± 0.005 |  |  |  |  |  |
| Cc1ccc(S(=O)(=O)N[C@@H](CC(=O)O)C(=O)N[C@@H](CCC(=O)O)C(=O)NCC(=O)N[C@@H](Cc2cccc(F)c2)C(=O)N[C@@H](Cc2c[nH]c3ccccc23)C(=O)N[C@@H](CCC(=O)O)C(N)=O)cc1 [Ts-DEGF(3F)WE-NH2] (Tos-DEG[Phe(3-F)]WE-NH2) |  |  |  |  | 8 | 0 | 7 | 0 | 0.018 ± 0.002 |  |  |  |  |  |
| COc1ccc(S(=O)(=O)N[C@@H](CC(=O)O)C(=O)N[C@@H](CCC(=O)O)C(=O)NCC(=O)N[C@@H](Cc2cccc(F)c2)C(=O)N[C@@H](Cc2c[nH]c3ccccc23)C(=O)N[C@@H](CCC(=O)O)C(N)=O)cc1 [4-(MeO)-PhSO2-DEGF(3F)WE-NH2] ({Benzenesulfonyl(4-OMe)}-DEG[Phe(3-F)]WE-NH2) |  |  |  |  | 8 | 0 | 3 | 15 | 0.027 ± 0.002 |  |  |  |  |  |
| Cc1ccc(S(=O)(=O)N[C@H](CC(=O)O)C(=O)N[C@@H](CCC(=O)O)C(=O)NCC(=O)N[C@@H](Cc2cccc(F)c2)C(=O)N[C@@H](Cc2c[nH]c3ccccc23)C(=O)N[C@@H](CCC(=O)O)C(N)=O)cc1 [Ts-dEGF(3F)WE-NH2] (Tos-[dD]EG[Phe(3-F)]WE-NH2) |  |  |  |  | 0 | 9 | 25 | 19 | 0.029 ± 0.005 |  |  |  |  |  |
| Cc1ccc(S(=O)(=O)N[C@H](CC(=O)O)C(=O)N[C@@H](CCC(=O)O)C(=O)NCC(=O)N[C@@H](Cc2cccc(F)c2)C(=O)N[C@@H](Cc2c[nH]c3ccccc23)C(=O)N(C)[C@@H](CCC(=O)O)C(N)=O)cc1 [UBP032, Ts-dEGF(3F)WE(Me)-NH2] (Tos-[dD]EG[Phe(3-F)]W[NMeE]-NH2) |  | inhibits |  | inhibits | 10 | 4 | 0 | 0 |  |  |  |  |  |  |
